This is an account of results in PubChem BioAssay (NCI).

Structures are written as SMILES.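 Dose response: 5 concentrations. Exposure: 48 h. Format: 96-well plates. Endpoint: linear interpolation; highest concentration if not reached. At the TGI there is no net growth.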

In the first assay the test system is U251 CNS. The experiment in a line: inhibition of tumour cell growth, NCI panel, 48 h.
`CNC(=O)OCC1=C(COC(=O)NC)C(C)N(c2ccc(OC)cc2)C1` (stereo not given): the TGI is > 100 µM.

On to `O=C1c2ccccc2C2C1N2C(=O)C(F)(F)F` (stereo not given), for which the TGI is > 100 µM.

Consider `CC(=O)NC1=C(NCCC(C)C)C(=O)c2ccccc2C1=O`, for which the TGI was > 50 µM.

In turn, `N#CC1=C(N)N(c2ccccc2)C(c2ccco2)C1(C#N)C#N` (stereo not given) registered a TGI of 43 µM.

As for `O=S1(=O)NC(=NCc2c[nH]c3ccccc23)N(c2ccccc2)c2ccncc21`, the TGI was > 100 µM.

For `CC(=O)NNc1nc(C)c(C(=O)NNC(=O)C(=O)Nc2c(Cl)cc([N+](=O)[O-])cc2Cl)s1`, the TGI was > 100 µM.

`Cc1ccsc1/C=N/Nc1ncccn1`: the TGI is > 100 µM.

For `N=c1n(C(=O)N2CCCC2)c2cc(Cl)ccc2n1C1=NCCN1`, the TGI was > 100 µM.

`Nc1cccc2cc(Cl)cnc12`: the TGI was > 100 µM.

As for `CCc1ccc(CCN2CCCCC2)nc1`, the TGI was > 100 µM.

The test system of the next assay is KM12 colon. The experiment in a line: inhibition of tumour cell growth, NCI panel, 48 h.
Regarding `CC(C)c1ccc(/C=C2/C=C(c3ccc4ccccc4c3)OC2=O)cc1`, the TGI is > 100 µM.

`COc1cc(/C=C/C(=N\NS(=O)(=O)c2ccc(C)cc2)c2sc(NNC(C)=O)nc2C)ccc1O`: the TGI was > 100 µM.

The molecule `Oc1ccc(-c2nc(-c3cccnc3)c(-c3ccc(F)cc3)[nH]2)cc1` showed a TGI of 33.2 µM.

On to `CCCCCCCCCCCOc1ccc(C(=O)C(=O)c2ccc(OCCCCCCCCCCC)c(OCCCCCCCCCCC)c2)cc1OCCCCCCCCCCC`, for which the TGI was > 100 µM.

Molecule `COc1cc(/C=C2\S/C(=N/Nc3nc(-c4ccc(Br)cc4)cs3)NC2=O)cc(OC)c1OC` came in with a TGI of 32.8 µM.

For `CCOC(=O)Nn1c(C)nnc1-c1ccccc1`, the TGI was > 100 µM.

As for `COc1ccc(/C=C2\CCC(C)C3=C2NC(=S)NC3c2ccc(OC)c(OC)c2)cc1OC` (stereo not given), the TGI was > 31.6 µM.

In turn, `O=[N+]([O-])/C(C(Cl)=C(Cl)Cl)=C(\SCc1ccccc1)N1CCCCC1` returned a TGI of 87.1 µM.

Molecule `CC(C)/C(Cl)=N\OC(=O)Nc1ccc(S(N)(=O)=O)cc1` came in with a TGI of 33.3 µM.

Regarding `CC1C=C(CCCCCCCCCCCC[C@@H](O)[C@@H]2CC[C@@H]([C@@H]3CC[C@@H](C(O)CCCCCCCCCCCCC4=C[C@H](C)OC4=O)O3)O2)C(=O)O1` (stereo not given in full), the TGI was > 100 µM.

With `CNC(=O)OCC1=C(COC(=O)NC)C(C)N(c2ccc(OC)cc2)C1` (stereo not given), the TGI was > 100 µM.

In the case of `O=C1c2ccccc2C2C1N2C(=O)C(F)(F)F` (stereo not given), the TGI is > 100 µM.

Turning to `CC(=O)NC1=C(NCCC(C)C)C(=O)c2ccccc2C1=O`, the TGI was > 50 µM.

The molecule `N#CC1=C(N)N(c2ccccc2)C(c2ccco2)C1(C#N)C#N` (stereo not given) displayed a TGI of 37.2 µM.

For `O=S1(=O)NC(=NCc2c[nH]c3ccccc23)N(c2ccccc2)c2ccncc21`, the TGI is > 100 µM.

On to `CC(=O)NNc1nc(C)c(C(=O)NNC(=O)C(=O)Nc2c(Cl)cc([N+](=O)[O-])cc2Cl)s1`, for which the TGI was > 100 µM.

For `Cc1ccsc1/C=N/Nc1ncccn1`, the TGI was > 100 µM.

On to `N=c1n(C(=O)N2CCCC2)c2cc(Cl)ccc2n1C1=NCCN1`, for which the TGI was > 100 µM.

For the molecule `Nc1cccc2cc(Cl)cnc12`, the TGI was > 100 µM.

Consider `CCc1ccc(CCN2CCCCC2)nc1`, for which the TGI is > 100 µM.

In the next assay the test system is UACC-257 melanoma. The assay is described as follows: inhibition of tumour cell growth, NCI panel, 48 h.
In turn, `CC(C)c1ccc(/C=C2/C=C(c3ccc4ccccc4c3)OC2=O)cc1` had a TGI of 59.2 µM.

`COc1cc(/C=C/C(=N\NS(=O)(=O)c2ccc(C)cc2)c2sc(NNC(C)=O)nc2C)ccc1O`: the TGI was > 100 µM.

Molecule `Oc1ccc(-c2nc(-c3cccnc3)c(-c3ccc(F)cc3)[nH]2)cc1` gave a TGI of 31.5 µM.

With `CCCCCCCCCCCOc1ccc(C(=O)C(=O)c2ccc(OCCCCCCCCCCC)c(OCCCCCCCCCCC)c2)cc1OCCCCCCCCCCC`, the TGI is > 100 µM.

As for `COc1cc(/C=C2\S/C(=N/Nc3nc(-c4ccc(Br)cc4)cs3)NC2=O)cc(OC)c1OC`, the TGI worked out at 44.9 µM.

`CCOC(=O)Nn1c(C)nnc1-c1ccccc1`: the TGI is > 100 µM.

Regarding `COc1ccc(/C=C2\CCC(C)C3=C2NC(=S)NC3c2ccc(OC)c(OC)c2)cc1OC` (stereo not given), the TGI was > 31.6 µM.

For the molecule `O=[N+]([O-])/C(C(Cl)=C(Cl)Cl)=C(\SCc1ccccc1)N1CCCCC1`, the TGI was 77.2 µM.

With `CC(C)/C(Cl)=N\OC(=O)Nc1ccc(S(N)(=O)=O)cc1`, the TGI turned out to be 32.4 µM.

With `CC1C=C(CCCCCCCCCCCC[C@@H](O)[C@@H]2CC[C@@H]([C@@H]3CC[C@@H](C(O)CCCCCCCCCCCCC4=C[C@H](C)OC4=O)O3)O2)C(=O)O1` (stereo not given in full), the TGI was > 100 µM.

As for `CNC(=O)OCC1=C(COC(=O)NC)C(C)N(c2ccc(OC)cc2)C1` (stereo not given), the TGI was > 100 µM.

Regarding `O=C1c2ccccc2C2C1N2C(=O)C(F)(F)F` (stereo not given), the TGI was > 100 µM.

Regarding `CC(=O)NC1=C(NCCC(C)C)C(=O)c2ccccc2C1=O`, the TGI was > 50 µM.

Molecule `N#CC1=C(N)N(c2ccccc2)C(c2ccco2)C1(C#N)C#N` (stereo not given) had a TGI of 37.2 µM.

Regarding `O=S1(=O)NC(=NCc2c[nH]c3ccccc23)N(c2ccccc2)c2ccncc21`, the TGI was > 100 µM.

`CC(=O)NNc1nc(C)c(C(=O)NNC(=O)C(=O)Nc2c(Cl)cc([N+](=O)[O-])cc2Cl)s1` had a TGI of 68.7 µM.

With `Cc1ccsc1/C=N/Nc1ncccn1`, the TGI was > 100 µM.

With `N=c1n(C(=O)N2CCCC2)c2cc(Cl)ccc2n1C1=NCCN1`, the TGI was > 100 µM.

As to `Nc1cccc2cc(Cl)cnc12`, the TGI was > 100 µM.

Turning to `CCc1ccc(CCN2CCCCC2)nc1`, the TGI is > 100 µM.
